Reference: patent US9765092B2, “Tricyclic piperidine compounds” (ACTELION PHARMACEUTICALS LTD, priority 2013, dated 2017)

These compounds were tested against human TPH1 (Homo sapiens (Human), UniProt P17752) (assay: Biochemical in vitro assay using fluorescence readout (TPH1 inhibition)). Conditions: full length human TPH1, 40 μM L-tryptophan, 15° C., 60 minutes, fluorescence at 540 nm; mean if determined several times.
Chain of human TPH1 (P17752 whole entry): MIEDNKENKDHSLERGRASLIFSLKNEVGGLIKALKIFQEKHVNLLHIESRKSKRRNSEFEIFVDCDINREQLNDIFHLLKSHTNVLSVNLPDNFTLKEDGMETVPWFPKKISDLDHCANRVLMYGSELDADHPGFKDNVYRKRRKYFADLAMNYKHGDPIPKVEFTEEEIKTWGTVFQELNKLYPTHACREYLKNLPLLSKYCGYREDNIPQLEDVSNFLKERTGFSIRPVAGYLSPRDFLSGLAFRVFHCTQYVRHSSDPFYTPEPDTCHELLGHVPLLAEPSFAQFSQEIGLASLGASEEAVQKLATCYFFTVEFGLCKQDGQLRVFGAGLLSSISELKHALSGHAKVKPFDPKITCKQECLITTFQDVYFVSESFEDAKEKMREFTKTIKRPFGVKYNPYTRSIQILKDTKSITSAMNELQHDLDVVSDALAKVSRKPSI

SMILES | IC50
CNC(=O)c1ccc(OCC(=O)N2CCc3nc4sc(C)nn4c3C2c2cc(C(=O)N(C)C)cs2)c(Cl)n1 (stereo not shown) [Example 1.9.6, 6-Chloro-5-(2-(5-(4-(dimethylcarbamoyl)thiophen-2-yl)-2-methyl-7,8-dihydro-[1,3,4]-thiadiazolo[2′,3′:2,3]imidazo[4,5-c]pyridin-6(5H)-yl)-2-oxoethoxy)-N-methyl-picolinamide] | 99 nM

Same assay, conditions: human TPH1, fluorescence readout

SMILES | IC50
CCc1nc(C)ccc1OCC(=O)N1CCc2nc3sc(C)nn3c2C1c1cnc(C2CC2)nc1 (stereo not shown) [Example 1.10.1, 1-(5-(2-cyclopropylpyrimidin-5-yl)-2-methyl-7,8-dihydro-[1,3,4]thiadiazolo[2′,3′:2,3]imidazo[4,5-c]pyridin-6(5H)-yl)-2-((2-ethyl-6-methylpyridin-3-yl)oxy)ethanone] | 187 nM
Cc1nn2c3c(nc2s1)CCN(C(=O)COc1ccc(N2CCOCC2)cc1Cl)C3c1cnc(C2CC2)nc1 (stereo not shown) [Example 1.10.2, 2-(2-chloro-4-morpholinophenoxy)-1-(5-(2-cyclopropyl-pyrimidin-5-yl)-2-methyl-7,8-dihydro-[1,3,4]thiadiazolo [2′,3′:2,3]imidazo[4,5-c]pyridin-6(5H)-yl)ethanone] | 18 nM
CCc1nc(C)ccc1OCC(=O)N1CCc2nc3sc(C)nn3c2C1c1cnc(C2CC2)nc1C (stereo not shown) [Example 1.10.3, 1-(5-(2-cyclopropyl-4-methylpyrimidin-5-yl)-2-methyl-7,8-dihydro-[1,3,4]thiadiazolo[2′,3′:2,3]imidazo[4,5-c]pyridin-6(5H)-yl)-2-((2-ethyl-6-methylpyridin-3-yl)oxy)ethanone] | 38 nM
Cc1nn2c3c(nc2s1)CCN(C(=O)COc1ccc(N2CCOCC2)cc1Cl)C3c1cnc(C2CC2)nc1C (stereo not shown) [Example 1.10.4, 2-(2-chloro-4-morpholinophenoxy)-1-(5-(2-cyclopropyl-4-methylpyrimidin-5-yl)-2-methyl-7,8-dihydro-[1,3,4]thiadiazolo [2′,3′:2,3]imidazo[4,5-c]pyridin-6(5H)-yl)ethanone] | 18 nM
Cc1nn2c3c(nc2s1)CCN(C(=O)COc1ccc(Cl)cc1C)C3c1nc(-c2ccccc2)no1 (stereo not shown) [Example 1.11.1, 2-(4-chloro-2-methylphenoxy)-1-(2-methyl-5-(3-phenyl-1,2,4-oxadiazol-5-yl)-7,8-dihydro-[1,3,4]thiadiazolo [2′,3′:2,3]imidazo[4,5-c]pyridin-6(5H)-yl)ethanone] | 35 nM
CCc1ncccc1OCC(=O)N1CCc2nc3sc(C)nn3c2C1c1nc(-c2ccccc2)no1 (stereo not shown) [Example 1.11.2, 2-((2-ethylpyridin-3-yl)oxy)-1-(2-methyl-5-(3-phenyl-1,2,4-oxadiazol-5-yl)-7,8-dihydro-[1,3,4]thiadiazolo[2′,3′:2,3]imidazo[4,5-c]pyridin-6(5H)-yl)ethanone] | 141 nM
Cc1nn2c3c(nc2s1)CCN(C(=O)COc1ccc(N2CCOCC2)nc1Cl)C3c1nc(-c2ccccc2)no1 (stereo not shown) [Example 1.11.3, 2-((2-chloro-6-morpholinopyridin-3-yl)oxy)-1-(2-methyl-5-(3-phenyl-1,2,4-oxadiazol-5-yl)-7,8-dihydro-[1,3,4]thiadiazolo [2′,3′:2,3]imidazo[4,5-c]pyridin-6(5H)-yl)ethanone] | 4 nM
Cc1nn2c3c(nc2s1)CCN(C(=O)COc1ccc(N2CCOCC2)nc1Cl)C3c1coc(-c2ccccc2)n1 (stereo not shown) [Example 1.12.1, 2-((2-chloro-6-morpholinopyridin-3-yl)oxy)-1-(2-methyl-5-(2-phenyloxazol-4-yl)-7,8-dihydro-[1,3,4]thiadiazolo [2′,3′:2,3]imidazo[4,5-c]pyridin-6(5H)-yl)ethanone] | 14 nM
CCc1ncccc1OCC(=O)N1CCc2nc3sc(C)nn3c2C1c1coc(-c2ccccc2)n1 (stereo not shown) [Example 1.12.2, 2-((2-ethylpyridin-3-yl)oxy)-1-(2-methyl-5-(2-phenyloxazol-4-yl)-7,8-dihydro-[1,3,4]thiadiazolo[2′,3′:2,3]imidazo[4,5-c]pyridin-6(5H)-yl)ethanone] | 336 nM
